Measured values published in US20220088195A1, “Prevention or mitigation of T-cell bispecific antibody-related adverse effects” (Hoffmann-La Roche Inc., priority 2020, published 2022).

What was measured:
[1] = test system: CD4+ and CD8+ T cells; assay: T cell degranulation, CD107a staining by FACS at 24h, SKM-1 + HLA-A2 WT-1-TCB; assay type: cell-based, human
Experimental: FIG. 13. In vitro killing assay set-up and timelines to assess T cell degranulation. PBMCs were co-cultured with SKM-1 target cells (E:T=5:1) and 10 nM HLA-A2 WT-1-TCB in the presence and absence of 100 nM dasatinib. Golgistop and Golgiplug (both BD) and CD107a antibody were added 3 hours after activation with TCB to prevent cytokine externalization.
FIG. 14. CD107a+ populations among CD4+ and CD8+ T cells in the presence and absence of dasatinib for one representative donor, in the assay of FIG. 13. Expression of CD107a on CD4+ and CD8+ T cells was measured by FACS at 24h.
FIG. 15. Percentages of CD107a+ cells among CD4+ (A) and CD8+ (B) T cells in the presence and absence of dasatinib in the assay of FIG. 13. Expression of CD107a on CD4+ and CD8+ T cells was measured by FACS at 24h. Mean of 3 donors+/−SD.
(§1) To assess whether dasatinib can efficiently prevent TCB-mediated target cell killing by activated T cells, we set up an in vitro killing assay with two stimulation steps, mimicking an ON/OFF switch. During the first stimulation, PBMCs were activated on carboxyfluorescein succinimidyl ester (CFSE)-labelled SKM-1 tumors cells with HLA-A2 WT-1-TCB in the absence of dasatinib (ON). During the second stimulation, activated PBMCs together with dead CFSE labelled SKM-1 tumors cells were washed and re-stimulated by HLA-A2 WT-1-TCB on fresh CTV labelled SKM-1 tumor cells in the presence of 100 nM dasatinib (OFF). The use of CFSE and CTV labelled SKM-1 tumors allowed to differentiate tumor cells used for first and second stimulation by flow cytometry (FIG. 8). […] Consistently, T cells were activated and functional before the addition of dasatinib in the system. 87.6% of CTV labelled SKM-1 cells were alive upon second stimulation with 10 nM HLA-A2 WT-1 TCB in the presence of 100 nM dasatinib, but only 2.04% of CTV labelled SKM-1 tumor cells were alive upon restimulation with 10 nM HLA-A2 WT-1-TCB in the absence of dasatinib (FIG. 10). […]

[2] = test system: IFN-γ, IL-2 and TNF-α release; assay: Cytokine release after second stimulation with HLA-A2 WT-1-TCB in the SKM-1 assay (Luminex); assay type: cell-based, human; details: 100 nM dasatinib, versus positive control ON/ON
Experimental: FIG. 12. Cytokine release after the second stimulation with HLA-A2 WT-1-TCB with and without dasatinib. Supernatants from the killing assay of FIG. 8 were collected 24 hours after the second stimulation and IFN-γ (A), TNF-α (B) and IL-2 (C) were measured with a multiplex cytokine kit (Luminex technology). n=3 donors.
as §1, with “system.” for “system. 87.6% of CTV labelled SKM-1 cells were alive upon second stimulation with 10 nM HLA-A2 WT-1 TCB in the presence of 100 nM dasatinib, but only 2.04% of CTV labelled SKM-1 tumor cells were alive upon restimulation with 10 nM HLA-A2 WT-1-TCB in the absence of dasatinib (FIG. 10).”

[3] = test system: CD4+ and CD8+ T cells; assay: T cell activation (CD25, CD69 by FACS) in SKM-1 killing assay with HLA-A2 WT-1-TCB, dasatinib added after 24 hours; assay type: cell-based, human; details: 48 hours; 100 nM dasatinib added at 24h; 10 nM HLA-A2 WT-1-TCB
Experimental: FIG. 3. In vitro killing assay set-up and timelines. PBMCs were co-cultured with SKM-1 target cells (E:T=10:1) and 10 nM HLA-A2 WT-1-TCB. Dasatinib (100 nM) was added after 24 hours of activation. PBMCs were labelled with CellTrace™ Violet (CTV) to allow T cell proliferation assessment.
FIG. 4. T cell activation. CD25 and CD69 expression on CD4+ and CD8+ T cells was measured by FACS after 24h and 48h of activation in the presence and absence of dasatinib, according to the assay of FIG. 3. (A) CD25 expression on CD8+ T cells, (B) CD25 expression on CD4+ T-cells, (C) CD69 expression on CD8+ T cells, (D) CD69 expression on CD4+ T cells.
To evaluate if dasatinib could act as a rapid and potent inhibitor of activated T cells, we first stimulated PBMCs on SKM-1 tumor cells with HLA-A2 WT-1-TCB for 24 hours. We then supplemented these activated effector cells with 100 nM dasatinib (FIG. 3).
Upon addition of 100 nM dasatinib at 24h, expression of early activation marker CD69 and late activation marker CD25 on CD4+ and CD8+ T cells at 48 hours was found at an intermediate level between expression measured at 24 hours and expression measured at 48 hours in samples with no dasatinib treatment (FIG. 4).

[4] = test system: lymphoma patient derived xenograft (PDX); assay: Humanized NSG mice engrafted with lymphoma PDX: serum cytokines, body weight, tumor growth; assay type: in vivo
Experimental: Humanized NSG mice were engrafted with a lymphoma PDX (5 million cells, s.c.). When tumors reached 200 mm^3, mice were randomized in groups of 8 or 7 based on their tumor size. They were treated with vehicle (i.v.), 0.5 mg/kg CD19-TCB (i.v.) as a monotherapy, 20 mg/kg dasatinib (p.o.) alone or in combination with 0.5 mg/kg CD19-TCB (i.v.). The serum of each mouse in the vehicle, CD19-TCB, and CD19-TCB+dasatinib groups and of n=4 mice in the dasatinib group was collected by tail-vein bleeding 6 hrs after the first treatment with CD19-TCB.
Cytokine levels in each individual mouse from the experiment described in FIG. 37. The levels of IFN-γ (A), TNF-α (B), IL-2 (C) and IL-6 (D) were measured in the serum by multiplex cytokine analysis using Luminex. Mean of n=6-8 mice+/−SEM with *p≤0.05, **p≤0.01, ***p≤0.001 by 1 way ANOVA (Kruskal Wallis test).
Body weight loss for each individual mouse from the experiment described in FIG. 37. The change in body weight [%] is measured as a percentage of the body weight before first treatment with CD19-TCB for each mouse. Box and whiskers showing minimum to maximum values of n=6-8 mice per group.
Tumor growth curves of the experiment described in FIG. 37. Tumor growth curves were plotted from tumor volumes measured using a Caliper, mean of n=6-8 mice+SD with **p≤0.01 by 1 way ANOVA (Kruskal Wallis test).
We evaluated the impact of transient interventions with dasatinib on CD19-TCB anti-tumor activity in humanized NSG mice engrafted with a lymphoma patient derived xenograft (PDX). Therefore, mice were treated with either vehicle, 0.5 mg/kg CD19-TCB as a monotherapy, or 20 mg/kg dasatinib, alone or in combination with 0.5 mg/kg CD19-TCB (FIG. 37). Dasatinib was given one hour prior and 6 hrs after the first treatment with CD19-TCB and then twice per day for the next 2 days to prevent cytokine release, predominantly occurring upon the first infusion. Moreover, dasatinib was also administered one hour before each subsequent treatment to prevent eventual residual cytokine secretion (FIG. 37).

[5] = test system: SKM-1 tumor cells; assay: Two-stimulation (ON/OFF) killing assay, PBMCs + CFSE/CTV labelled SKM-1 cells + HLA-A2 WT-1-TCB, FACS; assay type: cell-based, human
Experimental: FIG. 8. In vitro killing assay set-up and timelines. PBMCs were co-cultured with carboxyfluorescein succinimidyl ester (CFSE) labelled SKM-1 target cells (E:T=5:1) and 10 nM HLA-A2 WT-1-TCB for 20h. Activated PBMCs were washed and restimulated on fresh, CTV labelled SKM-1 target cells (E:T=5:1) and 10 nM HLA-A2 WT-1-TCB in the presence or absence of 100 nM dasatinib.
FIG. 10. SKM-1 target cell viability upon first stimulation with 10 nM HLA-A2 WT-1-TCB in the absence of dasatinib (left) and upon second stimulation with 10 nM HLA-A2 WT-1-TCB in the presence of 100 nM dasatinib (right). Target cell viability was measured by FACS after 44h in the assay of FIG. 8. Dead CFSE labelled SKM-1 cells were gated on positive near infrared (NIR) cells (left side). Dead CTV labelled SKM-1 cells were gated on positive NIR cells (right side).
FIG. 11. HLA-A2 WT-1-TCB dose response for dead CFSE and CTV SKM-1 cells used for first and second stimulation in the presence and absence of dasatinib in the assay of FIG. 8. Mean+/−SEM of 3 donors, two-tailed paired t test (for each concentration), 2 tailed p values: 0.1234 (ns), 0.0332 (*), 0.0021 (**), 0.0002 (***), <0.0001 (****).
To assess whether dasatinib can efficiently prevent TCB-mediated target cell killing by activated T cells, we set up an in vitro killing assay with two stimulation steps, mimicking an ON/OFF switch. […]

[6] = 10 nM HLA-A2 WT-1-TCB + 100 nM dasatinib, 24h, one representative donor

## Cc1nc(Nc2ncc(C(=O)Nc3c(C)cccc3Cl)s2)cc(N2CCN(CCO)CC2)n1 [dasatinib, N-(2-chloro-6-methylphenyl)-2-[[6-[4-(2-hydroxyethyl)-1-piperazinyl]-2-methyl-4-pyrimidinyl]amino]-5-thiazole carboxamide monohydrate]
[1]; [6]
  cells positive for CD107a among CD4+ T cells: 1.22%
  cells positive for CD107a among CD8+ T cells: 2.08%
[1]; 100 nM dasatinib, 3 donors
  TCB-induced CD107a expression on CD4+ and CD8+ T cells: prevented
[2]
  IFN-γ, IL-2 and TNF-α release upon re-stimulation: fully inhibited
[3]
  CD25 and CD69 expression on CD4+ and CD8+ T cells: rapidly blocked the expression of phenotypic activation markers
[4]; 20 mg/kg dasatinib p.o. + 0.5 mg/kg CD19-TCB i.v., serum 6 hrs
  CD19-TCB-mediated cytokine release (IFN-γ, TNF-α, IL-2, IL-6) upon the first infusion: strongly reduced
[4]; 24 hrs after the first CD19-TCB treatment, 20 mg/kg dasatinib
  body weight change: milder body weight change
[4]; transient use of 20 mg/kg dasatinib with 0.5 mg/kg CD19-TCB
  interference with CD19-TCB anti-tumor efficacy (tumor growth curves): minimally, yet not significantly, interfered
[5]; 10 nM HLA-A2 WT-1 TCB in the presence of 100 nM dasatinib
  CTV labelled SKM-1 cells alive upon second stimulation: 87.6%
[5]; 100 nM dasatinib upon re-stimulation
  killing of CTV labelled SKM-1 cells (ON/OFF versus ON/ON): effectively prevented the killing
